Results from patent US7732475B2, “Histone deacetylase inhibitors” (Takeda San Diego, Inc., priority 2005, dated 2010).

Target: HDAC2 (Homo sapiens, UniProt Q92769)
Assay: HDAC2 fluorescence inhibition assay (tBoc-Lys(Ac)-AMC)

Sequence of HDAC2 (Q92769 with tags, fused parts or gaps): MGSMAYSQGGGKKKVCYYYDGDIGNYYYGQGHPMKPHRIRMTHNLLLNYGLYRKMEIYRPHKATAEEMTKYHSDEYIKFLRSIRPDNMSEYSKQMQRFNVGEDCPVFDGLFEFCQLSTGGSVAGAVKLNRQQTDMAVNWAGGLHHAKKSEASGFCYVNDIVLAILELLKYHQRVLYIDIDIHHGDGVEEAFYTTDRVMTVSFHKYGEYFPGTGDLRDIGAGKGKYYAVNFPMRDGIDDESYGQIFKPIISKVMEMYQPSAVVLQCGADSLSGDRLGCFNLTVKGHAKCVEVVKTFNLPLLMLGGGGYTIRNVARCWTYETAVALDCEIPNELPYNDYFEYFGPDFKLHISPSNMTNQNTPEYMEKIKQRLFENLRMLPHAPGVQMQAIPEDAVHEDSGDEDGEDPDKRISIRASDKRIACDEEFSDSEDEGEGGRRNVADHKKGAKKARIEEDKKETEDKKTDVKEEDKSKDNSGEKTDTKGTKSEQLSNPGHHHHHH

IC50: 0.05 to 0.1 µM
SMILES: Nc1ccccc1NC(=O)c1ccc(Cc2c[nH]c3ccccc23)cc1 [Example 158, 4-((1H-Indol-3-yl)methyl)-N-(2-aminophenyl)benzamide]
